Measurements published in paper PMC8279495, “Design, Synthesis, and Biological Evaluation of Boron-Containing Macrocyclic Polyamines and Their Zinc(II) Complexes for Boron Neutron Capture Therapy” (Journal of Medicinal Chemistry, 2021).
Entries after “also recorded” stand apart in the source; their conditions may differ. Read-outs that look alike come from different tables or passages of the source. Each block holds one compound with its values, some of them ahead of it.

Legend:
[1] = test system: IMR-90 cells; assay: MTT cytotoxicity assay, IMR-90 cells; type: cell-based; conditions: 0–200 μM, treatment for 24 h, normal human fibroblast
Procedure: (§1) HeLa S3, A549, and IMR-90 cells (1 × 10^4 cells/well) were seeded on 96-well plates (Watson) in cell culture medium. […] After incubation for 4 h, a formazan lysis solution (10% sodium dodecyl sulfate in 0.01 N HCl aq) (100 μL) was added and the resulting solution was incubated under same conditions overnight. The absorbance at λ = 570 nm was measured with a microplate reader (Bio-Rad).

[2] = test system: HeLa S3 cells; assay: MTT cytotoxicity assay, HeLa S3 cells; type: cell-based, human; conditions: treatment for 24 h
Procedure: as §1

[3] = test system: A549 cells; assay: MTT cytotoxicity assay, A549 cells; type: cell-based, human; conditions: read-out: IC50 A549
Procedure: as §1

[4] = Hydrolysis of the C–B bond observed by ^11B-NMR; type: physicochemical
Text: The Zn^2+ complex of the o-form 7 was not obtained due to the carbon–boron bond cleavage that occurred upon complexation with Zn^2+, as previously described.[20]

[5] = test system: A549 cells; assay: Anti-tumor effect with thermal neutron irradiation (colony formation assay); type: cell-based, human; conditions: A549, 30 μM for 24 h, thermal neutrons 0–45 min, colony formation after 7 days
Procedure: BNCT experiments using A549 cells in the presence of the aforementioned B-containing drugs (^10B/^11B and ^10B-enriched compounds) were conducted at the Institute for Integrated Radiation and Nuclear Science, Kyoto University (KURNS). As shown in Scheme 12, A549 cells were incubated with the boron compounds (30 μM) for 24 h and suspensions (5 × 10^4 cells/mL) of these cells were irradiated with thermal neutrons [average thermal neutron flux: (1.5 ± 0.1) × 10^9 n/cm^2·s] at room temperature for various times (0, 15, 30, and 45 min). The irradiated cells were seeded on the 12 well plate (3 × 10^3 cells/well), incubated for 7 days, fixed with EtOH, and stained with crystal violet to produce visualizable images (Figure S5 in the Supporting Information). The surviving fractions were calculated as the stained colony area using the “ImageJ-plugin Colony Area”[43] software and normalized by comparing the results with those for non-irradiated cell samples (Figure 6).
A549 cells (5 × 10^5 cells/well) were seeded on 6-well plates (TrueLine, USA) and incubated in cell culture medium at 37 °C under 5% CO2 for 1 day. After removing the cell culture medium, the cells were washed gently with PBS. […] The thermal neutron flux (1.5 × 10^9 n/cm^2·s) was measured by two gold foils which were attached to the surface of the 1.5 mL tube. […]

[6] = test system: HeLa S3 cells; assay: Effect of inhibitors on intracellular uptake, HeLa S3 cells; type: cell-based, human; conditions: HeLa S3, 30 μM, 37 °C, 1 h
Procedure: Data represent the mean ± SD of at least three replicates.
HeLa S3 and A549 cells (5 × 10^5 cells/well) were seeded on 6-well plates (TrueLine, USA) and incubated in cell culture medium at 37 °C under 5% CO2 for 2 days (n = 4). […] To count the number of cells after treatment with the boron compounds, the cells (n = 1) were washed with PBS, detached by trypsin, and counted with a hemocytometer. For measurement of boron uptake, the cells (n = 3) were washed with PBS (1 mL ×3) and digested with 60% HNO3 aq (0.5 mL) at room temperature for 24 h, which were transferred to 15 mL centrifuge tubes with Milli-Q water (3.5 mL). These tubes were centrifuged at 3000 rpm and 4 °C for 10 min and then sample solutions were filtered. The concentration of boron atoms was determined by ICP–MS (NexION300S, PerkinElmer, Waltham, Massachusetts, USA).

[7] = test system: double-stranded calf-thymus DNA (ctDNA); assay: Thermal denaturation (melting temperature) of ctDNA; type: binding; conditions: pH 7.4; for Tm of ctDNA: without additive 66
Procedure: Thermal denaturation experiments of ctDNA (50 μM in phosphate) in 10 mM HEPES buffer (pH 7.4) with I = 0.02 (NaNO3) were performed on a JASCO V-550 UV/vis spectrophotometer (JASCO, Tokyo, Japan) equipped with a thermoelectric temperature controller (±0.5 °C), a stirring unit, and a 10 mm quartz cuvette. All aqueous solutions were made with purified water. The concentration of ctDNA was determined by UV absorption spectroscopy based on its molar extinction coefficient at 253 nm (ε253 = 6.6 × 10^3).[31d],[45] […] The Tm value was graphically determined from the spectral data, and the ΔTm value for each condition was calculated from the results in the presence and absence of additives.

[8] = parameters: method as in earlier work; conditions: aqueous solution at 25 °C, ref 24−26; cited from earlier work
[9] = parameters: method as in PMID 32192025; conditions: aqueous solution at 25 °C; cited from earlier work
[10] = Homo sapiens, HeLa S3, 0–200 μM

Compound: O=C(O)C(F)(F)F.OB(O)c1ccc(CN2CCNCCNCC2)cc1 [12a, 1-[(4-Boronopheny)methyl]-1,4,7-triazacyclononane]
- IC50 ([1]; Homo sapiens, IMR-90, 24 h): > 200 µM
- IC50 [2, 10]: > 200 µM
- IC50 ([3]; Homo sapiens, A549, 24 h): > 200 µM
- melting point: 138 to 141 °C

Compound: O=C(O)C(F)(F)F.OB(O)c1ccc(CN2CCNCCNCCNCC2)cc1 [13a, 1-[(4-Boronopheny)methyl]-1,4,7,10-tetraazacyclododecane]
- IC50 ([1]; Homo sapiens, IMR-90, 24 h): > 200 µM
- IC50 [2, 10]: > 200 µM
- IC50 ([3]; Homo sapiens, A549, 24 h): > 200 µM
- melting point: 172 to 175 °C

Compound: O=C(O)C(F)(F)F.OB(O)c1ccc(CN2CCNCCNCCNCCNCC2)cc1 [14a, 1-[(4-Boronopheny)methyl]-1,4,7,10,13-pentaazacyclopentadecane]
- IC50 ([1]; Homo sapiens, IMR-90, 24 h): > 200 µM
- IC50 [2, 10]: > 200 µM
- IC50 ([3]; Homo sapiens, A549, 24 h): > 200 µM
- melting point: 136 to 137 °C

- melting point: 65 to 67 °C
Compound: c1cc(B2OC3(CCCCC3)C3(CCCCC3)O2)ccc1CN1CCNCCNCC1 [15a]

- melting point: 57 to 58 °C
Compound: c1cc(CN2CCNCCNCC2)cc(B2OC3(CCCCC3)C3(CCCCC3)O2)c1 [15b]

- melting point: 129 to 131 °C
Compound: c1cc(B2OC3(CCCCC3)C3(CCCCC3)O2)ccc1CN1CCNCCNCCNCC1 [16a]

- melting point: 46 to 48 °C
Compound: c1cc(CN2CCNCCNCCNCC2)cc(B2OC3(CCCCC3)C3(CCCCC3)O2)c1 [16b]

- melting point: 43 to 44 °C
Compound: c1cc(B2OC3(CCCCC3)C3(CCCCC3)O2)ccc1CN1CCNCCNCCNCCNCC1 [17a]

- melting point: 78 to 80 °C
Compound: c1ccc(B2OC3(CCCCC3)C3(CCCCC3)O2)c(CN2CCNCCNCCNCCNCC2)c1 [17c, 1-[2-(13,15-Dioxa-15-boradispiro[5.0.5.3]pentadec-14-yl)phenyl]methyl-1,4,7,10,13-pentaazacyclopentadecane]

- half-life of C–B bond hydrolysis [4]: ~24 h
Compound: [Zn+2].c1ccc(B2OC3(CCCCC3)C3(CCCCC3)O2)c(CN2CCNCCNCCNCCNCC2)c1 [20c]

Compound: c1cc(C2OC3(CCCCC3)C3(CCCCC3)O2)ccc1CN1CCNCCNCCNCCNCC1 [^10B-17a, 1-[4-(13,15-Dioxa-15-boradispiro[5.0.5.3]pentadec-14-yl)phenyl]methyl-1,4,7,10,13-pentaazacyclopentadecane]
- BNCT effect (cytotoxic activity after thermal neutron irradiation, surviving fraction) [5]: higher than that for 1 (^10B-BSH) and 2 (^10B-BPA); also recorded: higher BNCT effect than ^10B-19b and ^10B-20a

- relative uptake in the presence of MβCD ([6]; 1.5 mM of MβCD): weak inhibition
- relative uptake in the presence of amiloride ([6]; 2 mM of amiloride): increased intracellular uptake
Compound: N[C@@H](Cc1ccc([10B](O)O)cc1)C(=O)O [compound 2, L-4-boronophenylalanine, reference compound]
- IC50 ([1]; Homo sapiens, IMR-90, 24 h): > 200 µM
- IC50 [2, 10]: > 200 µM
- IC50 ([3]; Homo sapiens, A549, 24 h, MTT, 0–200 μM, treatment for 24 h): > 200 µM

Compound: NCCCCNCCCN [compound 3, spermidine]
- ΔTm of ctDNA ([7]; r = 0.1, [ctDNA(P)] = 50 μM): +7 °C
- Tm of ctDNA ([7]; r = 0.1, [ctDNA(P)] = 50 μM): 73 °C
- ΔTm of ctDNA ([7]; r = 0.2, [ctDNA(P)] = 50 μM): +12 °C
- Tm of ctDNA ([7]; r = 0.2, [ctDNA(P)] = 50 μM): 78 °C

Compound: C1CNCCNCCN1 [compound 9, 1,4,7-triazacyclononane]
- pKa1 [8]: less than 2

Compound: C1CNCCNCCNCCN1 [compound 10, 1,4,7,10-tetraazacyclododecane]
- pKa1 [8]: less than 2
- pKa2 [8]: less than 2

Compound: C1CNCCNCCNCCNCCN1 [compound 11, 1,4,7,10,13-pentaazacyclopentadecane]
- pKa1 [8]: less than 2
- pKa2 [8]: less than 2

Compound: C1CNCCNCCN1.[Zn+2] [compound 31]
- log KZnL [9]: 11.3

Compound: sodium mercaptoborate [compound 1, reference compound]
- IC50 [1]: > 200 µM
- IC50 ([2]; 0–200 μM): > 200 µM
- IC50 ([3]; MTT, 0–200 μM, treatment for 24 h): > 200 µM
